Measured values: US10471029B2, “Methods for treating neurological disorders” (Alzheon, Inc., priority 2014, dated 2019)
Read-outs that look alike come from different tables or passages of the source. Values belong to the compound of their own block, whether it stands above or below them.

Experiments:
[1] = system: Alzheimer's Disease patients; experiment: ADAS-Cog score following treatment of Alzheimer's Disease patients with tramiprosate, retrospective subgroup analysis in 599 ApoE4+ subjects (FIGS. 1-2); type: in vivo, human; details: through 18 months, 150 mg BID, n=183, on top of acetylcholinesterase inhibitors and/or memantine
Method: FIG. 1 illustrates reduced ADAS-Cog score following treatment of Alzheimer's Disease patients with tramiprosate. At 26 weeks−1.25 (82%) P=0.0219 for 100 mg BID, −1.03 (57%), P=0.118 for 150 mg BID. At 52 weeks−2.03 (35%) P=0.002 for 100 mg BID, −1.85 (32%), P=0.006 for 150 mg BID. At 65 weeks−1.52 (22%) P=0.024 for 100 mg BID, −1.90 (27%) P=0.005 for 150 mg BID. At 78 weeks−1.90 (27%) P=0.005 for 100 mg BID, −1.86 (21%) P=0.028 for 150 mg BID. (n=599). Data derived from Caltagirone et al., “The potential protective effect of tramiprosate (homotaurine) against Alzheimer's disease: a review,” Aging Clin Exp Res. 2012 December; 24(6):580-7.
In certain embodiments, the efficacy of a compound may be determined through the ADAS-cog (Alzheimer's Disease Assessment Scale-cognitive subscale). ADAS was designed to measure the severity of the most important symptoms of Alzheimer's disease (AD). Its subscale ADAS-cog is the most popular cognitive testing instrument used in clinical trials of nootropics. It consists of 11 tasks measuring the disturbances of memory, language, praxis, attention and other cognitive abilities which are often referred to as the core symptoms of AD. The ADAS-Cog helps evaluate cognition and differentiates between normal cognitive functioning and impaired cognitive functioning. […]

[2] = system: Alzheimer's Disease patients; experiment: ADAS-Cog by ApoE4 subgroup in merged dataset; type: in vivo, human; details: for Change in ADAS-Cog Slope vs placebo / Change in ADAS-Cog Week 78 / ADAS-Cog Slope vs placebo / ADAS-Cog Week 78: merged dataset; for Change in ADAS-Cog Slope vs placebo / Change in ADAS-Cog Week 78: <80 years old
Source text: (§1) In certain embodiments, the efficacy of a compound may be determined through the ADAS-cog (Alzheimer's Disease Assessment Scale-cognitive subscale). ADAS was designed to measure the severity of the most important symptoms of Alzheimer's disease (AD). Its subscale ADAS-cog is the most popular cognitive testing instrument used in clinical trials of nootropics. It consists of 11 tasks measuring the disturbances of memory, language, praxis, attention and other cognitive abilities which are often referred to as the core symptoms of AD. The ADAS-Cog helps evaluate cognition and differentiates between normal cognitive functioning and impaired cognitive functioning. It is especially useful for determining the extent of cognitive decline and can help evaluate which stage of Alzheimer's disease a person is in, based on their answers and score. The ADAS-Cog can be used in clinical trials in order to determine incremental improvements or declines in cognitive functioning.
(§2) Patients were administered 3APS at 150 mg BID and 100 mg BID or were provided a placebo. ADAS-Cog results were measured. The data establish that the decline in score is delayed by 3APS. At 13 weeks a small improvement in ADAS-cog was observed. Over time, the difference increased.

[3] = system: Alzheimer's Disease patients; experiment: Change in ADAS-Cog by ApoE status in North American Trial; type: in vivo, human; details: for Change in ADAS-Cog Slope vs placebo / Change in ADAS-Cog Week 78: North American Trial
Source text: as §1, §2
Patients were administered 3APS and ADAS-Cog results were obtained at various timepoints. Patients were then genotyped to detect the presence of ApoE4 alleles. FIG. 8 illustrates the advantageous effects of tramiprosate, the active agent of Val-APS, in certain sub-populations segregated based on Apo E4 status. […] Data is presented at 13 weeks, 26 weeks, 39 weeks, 52 weeks, 65 weeks, and 78 weeks. […] ApoE4 prevalence correlates with improved cognition scores.

[4] = system: Alzheimer's Disease patients; experiment: CDR-SB (function) in ApoE4+ subjects (FIG. 3); type: in vivo, human; details: through 18 months, 150 mg BID, n=183, on top of acetylcholinesterase inhibitors and/or memantine
[5] = system: Alzheimer's Disease patients; details: n=599, cited from earlier work
[6] = Plasma and brain exposure of tramiprosate after oral Val-APS or tramiprosate in animals (FIG. 4); type: in vivo; details: Val-APS prodrug versus tramiprosate
Source text: L-Valyl-3-aminopropanesulfonate (Val-APS) is an orally available small molecule prodrug of tramiprosate with improved pharmaceutical properties. Tramiprosate was advanced to a ˜2,000 patient Phase 3 program which completed in 2007. […] Thus the present disclosure provides for administration of certain compounds including val-APS to ApoE4-positive patients for the treatment of Alzheimer's Disease.
The AUC ratio of brain tramiprosate exposure due to Val-APS compared to tramiprosate is ˜2.1.

[7] = Tolerability of Val-APS prodrug over tramiprosate; type: in vivo
[8] = human, in vivo

Compound: NCCCS(=O)(=O)O [Compound 3APS, 3-amino-1-propanesulfonic acid]
cognition (ADAS-cog) [1]: clinically meaningful improvement
decline in ADAS-Cog score ([2]; 150 mg BID and 100 mg BID versus placebo): delayed
Change in ADAS-Cog Slope vs placebo ([2]; ApoE4+, 100 mg BID): −3.92
Change in ADAS-Cog Week 78 ([2]; ApoE4+, 100 mg BID): −1.13
Change in ADAS-Cog Slope vs placebo ([2]; ApoE4+, 150 mg BID): −8.65
Change in ADAS-Cog Week 78 ([2]; ApoE4+, 150 mg BID): −2.17
Change in ADAS-Cog Slope vs placebo ([2]; ApoE4−, 100 mg BID): −4.40
Change in ADAS-Cog Week 78 ([2]; ApoE4−, 100 mg BID): −2.54
Change in ADAS-Cog Slope vs placebo ([2]; ApoE4−, 150 mg BID): −2.81
Change in ADAS-Cog Week 78 ([2]; ApoE4−, 150 mg BID): −0.93
Change in ADAS-Cog Slope vs placebo ([2]; Total, 100 mg BID): −3.94
Change in ADAS-Cog Week 78 ([2]; Total, 100 mg BID): −1.55
Change in ADAS-Cog Slope vs placebo ([2]; Total, 150 mg BID): −6.37
Change in ADAS-Cog Week 78 ([2]; Total, 150 mg BID): −1.66
ADAS-Cog Slope vs placebo ([2]; ApoE4+, 100 mg BID): −3.61
ADAS-Cog Week 78 ([2]; ApoE4+, 100 mg BID): −1.09
ADAS-Cog Slope vs placebo ([2]; ApoE4+, 150 mg BID): −7.09
ADAS-Cog Week 78 ([2]; ApoE4+, 150 mg BID): −1.73
ADAS-Cog Slope vs placebo ([2]; ApoE4−, 100 mg BID): −2.45
ADAS-Cog Week 78 ([2]; ApoE4−, 100 mg BID): −1.92
ADAS-Cog Slope vs placebo ([2]; ApoE4−, 150 mg BID): 0.35
ADAS-Cog Week 78 ([2]; ApoE4−, 150 mg BID): −0.66
ADAS-Cog Slope vs placebo ([2]; Total, 100 mg BID): −3.18
ADAS-Cog Week 78 ([2]; Total, 100 mg BID): −1.34
ADAS-Cog Slope vs placebo ([2]; Total, 150 mg BID): −4.19
ADAS-Cog Week 78 ([2]; Total, 150 mg BID): −1.27
Change in ADAS-Cog Slope vs placebo ([3]; ApoE4+ and ++, 100 mg BID): −1.43
Change in ADAS-Cog Week 78 ([3]; ApoE4+ and ++, 100 mg BID): −0.81
Change in ADAS-Cog Slope vs placebo ([3]; ApoE4+ and ++, 150 mg BID): −7.49
Change in ADAS-Cog Week 78 ([3]; ApoE4+ and ++, 150 mg BID): −1.67
Change in ADAS-Cog Slope vs placebo ([3]; ApoE4++, 100 mg BID): −4.33
Change in ADAS-Cog Week 78 ([3]; ApoE4++, 100 mg BID): −1.49
Change in ADAS-Cog Slope vs placebo ([3]; ApoE4++, 150 mg BID): −19.79
Change in ADAS-Cog Week 78 ([3]; ApoE4++, 150 mg BID): −4.63
Change in ADAS-Cog Slope vs placebo ([3]; ApoE4−, 100 mg BID): −2.04
Change in ADAS-Cog Week 78 ([3]; ApoE4−, 100 mg BID): −1.23
Change in ADAS-Cog Slope vs placebo ([3]; ApoE4−, 150 mg BID): 3.57
Change in ADAS-Cog Week 78 ([3]; ApoE4−, 150 mg BID): 0.59
Change in ADAS-Cog Slope vs placebo ([3]; Total, 100 mg BID): −1.75
Change in ADAS-Cog Week 78 ([3]; Total, 100 mg BID): −0.93
Change in ADAS-Cog Slope vs placebo ([3]; Total, 150 mg BID): −3.32
Change in ADAS-Cog Week 78 ([3]; Total, 150 mg BID): −0.83
improvement versus placebo on cognition ([3]; homozygous ApoE4 subjects, 150 mg BID, n=34): 4 point
improvement versus placebo on the ADAS-cog ([3]; homozygous ApoE4 subjects, 150 mg BID, n=34, after 18 months of treatment): 4.62 points
function (CDR-SB) [4]: clinically meaningful improvement
ADAS-Cog score, percent in brackets ([5]; 26 weeks, 100 mg BID): 82%
ADAS-Cog score ([5]; 26 weeks, 150 mg BID): −1.03
ADAS-Cog score, percent in brackets ([5]; 26 weeks, 150 mg BID): 57%
ADAS-Cog score, percent in brackets ([5]; 52 weeks, 100 mg BID): 35%
ADAS-Cog score ([5]; 52 weeks, 150 mg BID): −1.85
ADAS-Cog score, percent in brackets ([5]; 52 weeks, 150 mg BID): 32%
ADAS-Cog score, percent in brackets ([5]; 65 weeks, 100 mg BID): 22%
ADAS-Cog score ([5]; 65 weeks, 150 mg BID): −1.90
ADAS-Cog score, percent in brackets ([5]; 65 weeks, 150 mg BID): 27%
ADAS-Cog score ([5]; 78 weeks, 100 mg BID): −1.90
ADAS-Cog score, percent in brackets ([5]; 78 weeks, 100 mg BID): 27%
ADAS-Cog score ([5]; 78 weeks, 150 mg BID): −1.86
ADAS-Cog score, percent in brackets ([5]; 78 weeks, 150 mg BID): 21%

accumulation in the brain [6]: improved
formation of metabolite NRM5074 [8]: reduced
inter-subject PK variability [8]: decreased
t½ [8]: 14.9 ±3.9
Compound: CC(C)[C@H](N)C(=O)NCCCS(=O)(=O)O [Val-APS, L-Valyl-3-aminopropanesulfonate]
GI tolerability [7]: improved
nausea & vomiting [7]: reduced
